{"source": "patent US9345241B2", "about": "“Composition having biocide activity for aqueous preparations” (Omya International AG, priority 2008, dated 2016)", "key": {"[1]": {"test_system": "Pseudomonas putida", "test": "Biocidal activity of EDDM biocide in calcium carbonate slurries, plate count", "assay_type": "cell-based", "description": "(§1) All quoted bacterial counts (values are in cfu/ml) in the Tables herebelow are determined after 5 days following plate-out and in accordance with counting method described in “Bestimmung von aeroben mesophilen Keimen”, Schweizerisches Lebensmittelbuch, chapter 56, section 7.01, edition of 1985, revised version of 1988.\n(§2) (Ethylenedioxy)dimethanol (EDDM), an aldehyde-releasing biocide, was introduced into 50 g samples of each of calcium carbonate slurry 1 and calcium carbonate slurry 2 in an amount corresponding to 1500 ppm of aldehyde-releasing EDDM biocide based on the weight of the weight of water in the slurry. In parallel, control samples of calcium carbonate slurry 1 and calcium carbonate slurry 2 were prepared in absence of EDDM.\n(§3) Half of the samples of calcium carbonate slurry 1 and calcium carbonate slurry 2 were then inoculated with 1 mL of Methylobacterium extorquens, while the remaining samples where inoculated with 1 mL of Pseudomonas putida. Each of the samples was incubated at 30° C. for 72 hours. Thereafter, a 1:10 dilution in phosphate buffered saline (PBS) was plated on plate count agar (PCA). These plates were incubated at 30° C. and analysed after 5 days."}, "[2]": {"test_system": "Methylobacterium extorquens", "test": "Biocidal activity of EDDM biocide in calcium carbonate slurries, plate count", "assay_type": "cell-based", "description": "as §1, §2, §3"}, "[3]": {"conditions": "EDDM 1500 ppm in combination with lithium"}, "[4]": {"conditions": "EDDM alone at 1500 ppm, no lithium"}}}
{"smiles": "OCOCCOCO", "note": "[EDDM, (Ethylenedioxy)dimethanol]", "values": [{"measurement": "bacterial count of the suspension", "setting": "[1]; [3]", "result": "below 10^4 cfu/ml"}, {"measurement": "resistance of the strain to the biocide implemented alone", "setting": "[1]; [4]", "result": "show resistance"}, {"measurement": "bacterial count of the suspension", "setting": "[2]; [3]", "result": "below 10^4 cfu/ml"}, {"measurement": "resistance of the strain to the biocide implemented alone", "setting": "[2]; [4]", "result": "show resistance"}]}
